Assay [1] has as its target isolated ATM kinase (Homo sapiens (Human), UniProt Q13315). The assay can be described thus: FRET-based ATM activity assay at Reaction Biology Corp. (IC50^I). Type of assay: biochemical. Conditions: Table 13; read-out: IC50 [nM], IC50^I.
Assay [2] concerns the target ATM (h) (Homo sapiens (Human), UniProt Q13315). In words: ATM assay at Eurofins KinaseProfiler with adjusted concentration range (IC50^II). Type of assay: biochemical. As to conditions: Table 13.

SMILES strings stand for the structures. Where two headings read alike, the source gives them in different places.

isolated ATM kinase, sequence (Q13315 whole entry): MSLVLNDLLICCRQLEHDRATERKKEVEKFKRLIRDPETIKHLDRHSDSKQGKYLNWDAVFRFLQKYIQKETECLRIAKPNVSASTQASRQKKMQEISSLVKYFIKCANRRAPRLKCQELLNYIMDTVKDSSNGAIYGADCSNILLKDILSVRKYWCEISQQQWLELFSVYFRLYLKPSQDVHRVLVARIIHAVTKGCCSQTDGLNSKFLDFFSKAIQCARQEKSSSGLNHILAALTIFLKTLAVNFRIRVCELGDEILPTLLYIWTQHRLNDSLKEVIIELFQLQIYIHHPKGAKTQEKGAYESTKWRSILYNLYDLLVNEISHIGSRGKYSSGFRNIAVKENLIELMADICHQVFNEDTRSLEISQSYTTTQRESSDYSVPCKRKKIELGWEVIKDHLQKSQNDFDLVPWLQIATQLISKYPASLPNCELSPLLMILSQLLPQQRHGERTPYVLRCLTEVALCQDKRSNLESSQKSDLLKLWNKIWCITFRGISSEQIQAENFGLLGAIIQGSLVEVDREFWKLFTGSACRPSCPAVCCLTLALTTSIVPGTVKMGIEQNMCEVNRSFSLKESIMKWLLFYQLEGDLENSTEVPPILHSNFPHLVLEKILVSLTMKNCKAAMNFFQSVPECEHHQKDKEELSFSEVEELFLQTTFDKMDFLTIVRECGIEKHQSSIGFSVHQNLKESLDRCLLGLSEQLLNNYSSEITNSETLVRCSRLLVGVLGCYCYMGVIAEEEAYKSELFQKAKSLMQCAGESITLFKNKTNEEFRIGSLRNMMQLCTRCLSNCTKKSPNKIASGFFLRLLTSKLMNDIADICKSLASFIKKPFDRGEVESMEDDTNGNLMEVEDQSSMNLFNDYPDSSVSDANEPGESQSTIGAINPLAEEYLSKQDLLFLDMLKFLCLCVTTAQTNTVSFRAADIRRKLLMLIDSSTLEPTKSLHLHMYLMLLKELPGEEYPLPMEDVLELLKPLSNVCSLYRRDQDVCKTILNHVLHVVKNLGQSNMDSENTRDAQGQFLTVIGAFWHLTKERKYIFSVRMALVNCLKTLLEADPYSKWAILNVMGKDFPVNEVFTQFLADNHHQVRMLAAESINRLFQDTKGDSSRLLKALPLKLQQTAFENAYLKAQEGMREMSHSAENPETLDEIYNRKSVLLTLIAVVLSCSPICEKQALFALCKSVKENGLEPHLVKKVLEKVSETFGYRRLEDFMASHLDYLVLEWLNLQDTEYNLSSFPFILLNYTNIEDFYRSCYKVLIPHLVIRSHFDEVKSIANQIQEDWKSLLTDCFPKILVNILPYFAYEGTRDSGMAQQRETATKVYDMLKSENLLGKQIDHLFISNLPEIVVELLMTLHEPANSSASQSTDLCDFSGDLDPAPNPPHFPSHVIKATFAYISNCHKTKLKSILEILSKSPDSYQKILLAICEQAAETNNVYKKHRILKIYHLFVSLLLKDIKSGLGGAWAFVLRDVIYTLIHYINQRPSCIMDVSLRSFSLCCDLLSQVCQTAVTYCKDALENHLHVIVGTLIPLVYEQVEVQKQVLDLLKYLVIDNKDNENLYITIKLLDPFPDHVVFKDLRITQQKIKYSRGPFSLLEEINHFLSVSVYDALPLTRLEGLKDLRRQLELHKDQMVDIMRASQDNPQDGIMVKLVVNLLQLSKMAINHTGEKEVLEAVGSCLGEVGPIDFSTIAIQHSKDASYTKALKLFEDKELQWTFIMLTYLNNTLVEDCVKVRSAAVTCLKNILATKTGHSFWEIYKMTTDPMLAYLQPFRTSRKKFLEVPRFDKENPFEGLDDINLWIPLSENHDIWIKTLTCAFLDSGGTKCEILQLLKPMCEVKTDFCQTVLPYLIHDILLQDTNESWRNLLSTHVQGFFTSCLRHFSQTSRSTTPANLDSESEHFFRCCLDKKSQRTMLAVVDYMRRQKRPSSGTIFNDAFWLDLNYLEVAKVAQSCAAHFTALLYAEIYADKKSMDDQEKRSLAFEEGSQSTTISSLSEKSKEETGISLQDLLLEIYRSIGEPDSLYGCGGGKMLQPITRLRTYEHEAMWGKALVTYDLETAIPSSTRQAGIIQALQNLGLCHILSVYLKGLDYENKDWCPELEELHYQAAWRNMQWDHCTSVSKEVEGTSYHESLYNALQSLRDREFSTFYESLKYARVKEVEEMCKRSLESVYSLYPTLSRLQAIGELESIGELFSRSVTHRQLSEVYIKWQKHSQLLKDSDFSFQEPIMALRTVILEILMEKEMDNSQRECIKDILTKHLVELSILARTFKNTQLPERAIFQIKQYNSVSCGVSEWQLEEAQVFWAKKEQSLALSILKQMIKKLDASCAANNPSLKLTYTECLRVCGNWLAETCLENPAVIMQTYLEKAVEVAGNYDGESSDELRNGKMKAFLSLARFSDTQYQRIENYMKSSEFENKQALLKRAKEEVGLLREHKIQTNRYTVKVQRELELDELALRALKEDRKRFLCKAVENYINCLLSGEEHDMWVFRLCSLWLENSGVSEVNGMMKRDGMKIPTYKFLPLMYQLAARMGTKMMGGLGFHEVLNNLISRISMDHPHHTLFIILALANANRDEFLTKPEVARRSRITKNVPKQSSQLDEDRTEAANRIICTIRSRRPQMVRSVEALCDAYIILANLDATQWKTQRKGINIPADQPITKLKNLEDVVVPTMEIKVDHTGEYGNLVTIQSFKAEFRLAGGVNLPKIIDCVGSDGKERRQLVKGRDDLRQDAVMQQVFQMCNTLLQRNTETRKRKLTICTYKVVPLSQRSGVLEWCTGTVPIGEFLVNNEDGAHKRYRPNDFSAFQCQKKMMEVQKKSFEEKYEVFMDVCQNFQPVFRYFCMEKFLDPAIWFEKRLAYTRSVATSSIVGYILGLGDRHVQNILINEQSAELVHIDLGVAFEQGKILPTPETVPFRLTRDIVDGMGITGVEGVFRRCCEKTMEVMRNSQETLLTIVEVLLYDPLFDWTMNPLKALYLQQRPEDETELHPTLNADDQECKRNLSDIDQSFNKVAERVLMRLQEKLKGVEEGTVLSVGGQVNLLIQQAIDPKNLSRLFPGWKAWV
ATM (h), sequence (Q13315 whole entry): as above

For `COc1cc(-n2cnc3ccc(-c4ccc(NC(=O)NCCN(C)C)cc4)cc32)cc(OC)c1OC` [TD-309, 1-(2-(dimethylamino)ethyl)-3-(4-(1-(3,4,5-trimethoxyphenyl)-1H-benzo[d]imidazol-6-yl)phenyl)urea], in assay [1], the IC50 – broadly, the concentration that inhibits the measured activity by half – is 60 nM.
With `CN(C)CCSc1ccc(-c2ccc3ncn(-c4cccc(NS(C)(=O)=O)c4)c3c2)cc1` [TD-472, N-(3-(6-(4-((2-(dimethylamino)ethyl)thio)phenyl)-1H-benzo[d]imidazol-1-yl)phenyl)methanesulfonamide], the half-maximal inhibitory concentration (IC50) in assay [1] came out at 23 nM.
With `COc1cc2ncn(-c3ccc4c(c3)N(S(C)(=O)=O)CC4)c2cc1-c1ccc(OCCCN(C)C)nc1` [TD-630, 3-((5-(5-methoxy-1-(1-(methylsulfonyl)indolin-6-yl)-1H-benzo[d]imidazol-6-yl)pyridin-2-yl)oxy)-N,N-dimethylpropan-1-amine], in assay [2] (assay variant (I or II) not given, read-out: IC50), the IC50 is 386 nM.
As for `CN(C)CCNC(=O)Nc1ccc(-c2ccc3ncn(-c4ccc5c(c4)CCCC5)c3c2)cc1` [TD-547, 1-(2-(dimethylamino)ethyl)-3-(4-(1-(5,6,7,8-tetrahydronaphthalen-2-yl)-1H-benzo[d]imidazol-6-yl)phenyl)urea], the IC50 in assay [1] was 16 nM.
As to `CN1CCN2C(=O)N(c3ccc(-c4ccc5ncn(-c6cccc(NS(C)(=O)=O)c6)c5c4)cc3)CC2C1` (centres unmarked) [TD-448, N-(3-(6-(4-(7-methyl-3-oxohexahydroimidazo[1,5-a]pyrazin-2(3H)-yl)phenyl)-1H-benzo[d]imidazol-1-yl)phenyl)methanesulfonamide], in assay [1], the IC50 was 343 nM.
With `COCC(=O)Nc1ccc(-n2cnc3ccc(-c4ccc(NC(=O)NCCN(C)C)cc4)cc32)cc1` [TD-339, N-(4-(6-(4-(3-(2-(dimethylamino)ethyl)ureido)phenyl)-1H-benzo[d]imidazol-1-yl)phenyl)-2-methoxyacetamide], the IC50 in assay [1] was 10 nM.
In the case of `CS(=O)(=O)N1CCc2ccc(-n3cnc4ccc(-c5ccc(CO)cc5)cc43)cc21` [TD-587, (4-(1-(1-(methylsulfonyl)indolin-6-yl)-1H-benzo[d]imidazol-6-yl)phenyl)methanol], the 50% inhibitory concentration (IC50) in assay [2] (read-out: IC50 [nM], IC50^II) stood at 106 nM.
Turning to `CN(C)CCCn1cc(-c2ccc3ncn(-c4ccc5c(c4)N(S(C)(=O)=O)CC5)c3n2)cn1` [TD-623, N,N-dimethyl-3-(4-(3-(1-(methylsulfonyl)indolin-6-yl)-3H-imidazo[4,5-b]pyridin-5-yl)-1H-pyrazol-1-yl)propan-1-amine], in assay [2] (read-out: IC50 [nM], IC50^II), the IC50 came out at 237 nM.
For `COCC(=O)Nc1cccc(-n2cnc3ccc(-c4ccc(NC(=O)NCCN(C)C)cc4)cc32)c1` [TD-344, N-(3-(6-(4-(3-(2-(dimethylamino)ethyl)ureido)phenyl)-1H-benzo[d]imidazol-1-yl)phenyl)-2-methoxyacetamide], the IC50 in assay [1] amounted to 7 nM.
Regarding `COc1cc2ncn(-c3ccc4c(c3)N(S(C)(=O)=O)CC4)c2cc1-c1ccc(NC(=O)NCCN(C)C)cc1` [TD-634, 1-(2-(dimethylamino)ethyl)-3-(4-(5-methoxy-1-(1-(methylsulfonyl)indolin-6-yl)-1H-benzo[d]imidazol-6-yl)phenyl)urea], the half-maximal inhibitory concentration (IC50) in assay [2] (read-out: IC50 [nM], IC50^II) was 113 nM.
Take `CN(C)CCc1nc2cc(-c3ccc4ncn(-c5ccc6c(c5)N(S(C)(=O)=O)CC6)c4c3)ccc2[nH]1` [TD-607, N,N-dimethyl-2-(3′-(1-(methylsulfonyl)indolin-6-yl)-1H,3′H-[5,5′-bibenzo[d]imidazol]-2-yl)ethan-1-amine]: in assay [2] (read-out: IC50 [nM], IC50^II), the 50% inhibitory concentration (IC50) amounted to 2 nM.

The values above are taken from US20260015328A1, “ATM KINASE INHIBITORS” (Eberhard Karls Universität Tübingen, priority 2023, published 2026).
